Counter-ions that a name gives are not always drawn. Values belong to the compound of their own block, whether it stands above or below them.
Experiments:
[1] = Solid-form physical stability at ambient conditions / humidity; format: physicochemical
[2] = Slurry of the tromethamine salt in aqueous media (disproportionation); format: physicochemical

- time to full conversion to Formula I tromethamine salt hydrate I ([1]; ambient conditions, depending on % RH): ≤ 1 h
Compound: O=C(O)c1ccnc(N2CC(O)(c3ccc(OCc4c(-c5c(Cl)cccc5Cl)noc4C4CC4)cc3Cl)C2)c1

Compound: O=C(O)c1ccnc(N2CC(O)(c3ccc(OCc4c(-c5c(Cl)cccc5Cl)noc4C4CC4)cc3Cl)C2)c1 [Formula I tromethamine salt methanol solvate I]
- solid form conversion at ambient conditions ([1]; ambient conditions): loses methanol very rapidly at ambient conditions and converts to tromethamine salt methanol solvate III

- salt stability (disproportionation to zwitterion Form II) ([2]; MeOH/water (0.4-0.6 water activity)): disproportionation
- salt stability in slurry (disproportionation to zwitterion hydrate) ([2]; slurry in water): disproportionation of the salt
Compound: O=C(O)c1ccnc(N2CC(O)(c3ccc(OCc4c(-c5c(Cl)cccc5Cl)noc4C4CC4)cc3Cl)C2)c1 [Formula I tromethamine salt]

Compound: O=C(O)c1ccnc(N2CC(O)(c3ccc(OCc4c(-c5c(Cl)cccc5Cl)noc4C4CC4)cc3Cl)C2)c1 [Formula I tromethamine salt MTBE solvate]
- solid form conversion at ambient conditions ([1]; ambient conditions): converted to disordered material at ambient conditions

Compound: O=C(O)c1ccnc(N2CC(O)(c3ccc(OCc4c(-c5c(Cl)cccc5Cl)noc4C4CC4)cc3Cl)C2)c1 [Formula I tromethamine salt ethanol solvate]
- solid form conversion at ambient conditions ([1]; ambient conditions): converted to Formula I tromethamine salt hydrate I at ambient conditions

Compound: O=C(O)c1ccnc(N2CC(O)(c3ccc(OCc4c(-c5c(Cl)cccc5Cl)noc4C4CC4)cc3Cl)C2)c1 [Formula I tromethamine salt Form II]
- moisture absorption and form conversion ([1]; about >20% RH): rapidly absorbs moisture at about >20% RH and converts to Formula I tromethamine salt hydrate II
